Measurements: patent US10173968B2, “Bishydrazone-based antifungal agents” (University of Kentucky Research Foundation, priority 2016, dated 2019)
“And” between values parts separate entries of the source, which are not always exact repeats. Equal values may be shown once. Read-outs that look alike come from different tables or passages of the source.

Tests used:
[1] = system: VRE; experiment: Antibacterial MIC, double-dilution method; type: cell-based; conditions: Enterococcus, strain D, Gram-positive, read-out: MIC
Procedure, shortened: (§1)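 Compounds were first screened at 500 μM each, then MICs were read by serial twofold dilution of the compound against the bacterial strain.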

[2] = system: E. coli MC1061; experiment: Antibacterial MIC, double-dilution method; type: cell-based; conditions: Escherichia coli, strain G, Gram-negative, read-out: MIC
Procedure, shortened: as §1

[3] = system: E. cloacae ATCC 13047; experiment: Antibacterial MIC, double-dilution method; type: cell-based; conditions: Enterobacter cloacae, ATCC13047
Procedure, shortened: as §1

[4] = system: MRSA; experiment: Antibacterial MIC, double-dilution method; type: cell-based; conditions: Staphylococcus aureus, strain C, Gram-positive, read-out: MIC
Procedure, shortened: as §1

[5] = system: K. pneumoniae ATCC 27736; experiment: Antibacterial MIC, double-dilution method; type: cell-based; conditions: Klebsiella pneumoniae, ATCC27736
Procedure, shortened: as §1

[6] = system: P. aeruginosa ATCC 27853; experiment: Antibacterial MIC, double-dilution method; type: cell-based; conditions: Pseudomonas aeruginosa, ATCC27853
Procedure, shortened: as §1

[7] = system: A. baumannii ATCC 19606; experiment: Antibacterial MIC, double-dilution method; type: cell-based; conditions: Acinetobacter baumannii, ATCC19606
Procedure, shortened: as §1

[8] = system: L. monocytogenes ATCC 19115; experiment: Antibacterial MIC, double-dilution method; type: cell-based; conditions: Listeria monocytogenes, ATCC19115, strain B, Gram-positive, read-out: MIC
Procedure, shortened: as §1

[9] = system: B. subtilis 168; experiment: Antibacterial MIC, double-dilution method; type: cell-based; conditions: Bacillus subtilis, strain A, Gram-positive
Procedure, shortened: as §1

[10] = system: S. enterica ATCC 14028; experiment: Antibacterial MIC, double-dilution method; type: cell-based; conditions: Salmonella enterica, ATCC14028, strain J, Gram-negative, read-out: MIC
Procedure, shortened: as §1

[11] = system: M. smegmatis MC2-155; experiment: Antibacterial MIC, double-dilution method; type: cell-based; conditions: Mycolicibacterium smegmatis, MC2155, strain K, mycobacterial
Procedure, shortened: as §1

[12] = system: all bacterial strains tested; experiment: Antibacterial MIC, summary over the panel; type: cell-based; conditions: read-out: MIC, span over all bacterial strains tested
Description: MIC values were determined against a variety of Gram-positive (strains A-D) and Gram-negative (E-J) bacterial and mycobacterial (K) strains using the double-dilution method, as previously published. Preliminary screening was performed using 500 μM of each compound.

[13] = system: C. albicans ATCC 1003; experiment: Antifungal MIC, CLSI M27-A3 microbroth dilution; type: cell-based, Candida albicans; conditions: Candida albicans, ATCC1003, read-out: MIC
Description: (§2) In vitro MIC testing was performed according to the CLSI M27-A3 standard microbroth dilution methodology for the susceptibility testing of yeasts with minor modifications.

[14] = system: C. albicans ATCC 90819; experiment: Antifungal MIC, CLSI M27-A3 microbroth dilution; type: cell-based, Candida albicans; conditions: Candida albicans, ATCC90819, C. albicans ATCC 90819, resistant to FLC, ITC, and VOR, read-out: MIC
Description: as §2

[15] = system: C. albicans ATCC 10231; experiment: Antifungal MIC, CLSI M27-A3 microbroth dilution; type: cell-based, Candida albicans; conditions: Candida albicans, ATCC10231, C. albicans ATCC 10231, resistant to FLC, ITC, and VOR, read-out: MIC
Description: as §2

[16] = system: C. albicans ATCC 2310; experiment: Antifungal MIC, CLSI M27-A3 microbroth dilution; type: cell-based, Candida albicans; conditions: Candida albicans, ATCC2310, C. albicans ATCC 2310, susceptible to FLC, ITC, and VOR, read-out: MIC
Description: as §2

[17] = system: C. albicans ATCC 64124; experiment: Antifungal MIC, CLSI M27-A3 microbroth dilution; type: cell-based, Candida albicans; conditions: Candida albicans, ATCC64124, C. albicans ATCC 64124, resistant to FLC, ITC, and VOR, read-out: MIC
Description: as §2

[18] = system: C. albicans ATCC 1237; experiment: Antifungal MIC, CLSI M27-A3 microbroth dilution; type: cell-based, Candida albicans; conditions: Candida albicans, ATCC1237, C. albicans ATCC 1237, resistant to FLC, ITC, and VOR, read-out: MIC
Description: as §2

[19] = system: C. albicans ATCC 2876; experiment: Antifungal MIC, CLSI M27-A3 microbroth dilution; type: cell-based, Candida albicans; conditions: Candida albicans, ATCC2876, C. albicans ATCC 2876, susceptible to FLC, ITC, and VOR, read-out: MIC
Description: as §2

[20] = system: C. albicans strains (panel of seven); experiment: Antifungal MIC, summary over the panel; type: cell-based, Candida albicans; conditions: Candida albicans; all, most or majority of the fungal strains; read-out: MIC, span over C. albicans strains
Description: In vitro MIC testing was performed according to the CLSI M27-A3 standard microbroth dilution methodology for the susceptibility testing of yeasts with minor modifications. […] MIC values were read visually for all tested compounds, and the endpoint was determined as the minimum concentration of compound that yielded complete inhibition relative to growth control.

[21] = strain F, Gram-negative, range 0.5 to 500 μM, read-out: MIC
[22] = strain H, Gram-negative, range 0.5 to 500 μM, read-out: MIC
[23] = strain I, Gram-negative, range 0.5 to 500 μM, read-out: MIC
[24] = strain E, Gram-negative, range 0.5 to 500 μM, read-out: MIC
[25] = converted from μM, read-out: MIC
[26] = range 0.5 to 500 μM, read-out: MIC
[27] = strain F, Gram-negative, converted from μM, read-out: MIC
[28] = strain I, Gram-negative, converted from μM, read-out: MIC
[29] = C. albicans ATCC 1003, converted from μg/mL

SMILES	MIC ([1]; converted from μM)	MIC ([1]; range 0.5 to 500 μM)	MIC ([2]; converted from μM)	MIC ([2]; range 0.5 to 500 μM)	MIC [3, 21]	MIC ([4]; converted from μM)	MIC ([4]; range 0.5 to 500 μM)	MIC [5]	MIC [5, 22]	MIC [6, 23]	MIC [7]	MIC [7, 24]	MIC ([8]; converted from μM)	MIC ([8]; range 0.5 to 500 μM)	MIC ([9]; converted from μM)	MIC ([9]; range 0.5 to 500 μM)	MIC ([10]; converted from μM)	MIC ([10]; range 0.5 to 500 μM)	MIC [11, 25]	MIC [11, 26]	other results
CC1(C)S[C@@H]2[C@H](NC(=O)[C@H](N)c3ccccc3)C(=O)N2[C@H]1C(=O)O [AMP, ampicillin, reference compound]	92.8 µg/mL	250 µM	> 92.8 µg/mL	> 250 µM	> 250 µM	92.8 µg/mL	250 µM	> 92.8 µg/mL	> 250 µM	> 250 µM	> 92.8 µg/mL	> 250 µM	92.8 µg/mL	250 µM	> 92.8 µg/mL	> 250 µM	92.8 µg/mL	250 µM	> 92.8 µg/mL	> 250 µM	MIC [3]: > 92.8 µg/mL; MIC [6]: > 92.8 µg/mL; MIC [12]: ≥ 250 µM
Cl.N#Cc1ccc(N/N=C/c2ccc(-c3ccc(/C=N/NC(=N)N)cc3)cc2)cc1 [Compound 7Ae, (E)-2-((4′-((E and Z)-(2-(4-Cyanophenyl)hydrazono)methyl)-[1,1′-biphenyl]-4-yl)methylene)hydrazine-1-carboximidamide monohydrochloride]	0.8 to 1.6 µg/mL	2 to 3.9 µM	26.1 to 52.2 µg/mL	62.5 to 125 µM	500 µM	6.5 µg/mL	15.6 µM	15.6 µM to 31.3 µM and 6.5 µg/mL to 13.1 µg/mL	–	31.3 to 62.5 µM	15.6 µM to 31.3 µM and 6.5 µg/mL to 13.1 µg/mL	–	3.3 µg/mL	7.8 µM	13.1 µg/mL	31.3 µM	6.5 µg/mL	15.6 µM	6.5 to 13.1 µg/mL	–	MIC [3, 27]: 209 µg/mL; MIC [6, 28]: 13.1 to 26.1 µg/mL; MIC ([11]; range 0.5 to 500 μM): 15.6 to 31.3 µM; MIC [13, 29]: 18.7 µM; MIC [13]: 7.8 µg/mL; MIC ([14]; converted from μg/mL): 37.3 µM; MIC [14]: 15.6 µg/mL; MIC ([15]; converted from μg/mL): 37.3 µM; MIC [15]: 15.6 µg/mL; MIC ([16]; converted from μg/mL): 37.3 µM; MIC [16]: 15.6 µg/mL; MIC ([17]; converted from μg/mL): 74.9 µM; MIC [17]: 31.3 µg/mL; MIC ([18]; converted from μg/mL): 37.3 µM; MIC [18]: 15.6 µg/mL; MIC ([19]; converted from μg/mL): 37.3 µM; MIC [19]: 15.6 µg/mL; melting point: 308 to 310 °C; MIC [20]: 7.8 to 15.6 µg/mL
Cl.N=C(N)N/N=C/c1ccc(-c2ccc(/C=N/Nc3ccc(Cl)cc3Cl)cc2)cc1 [Compound 7Ag, (E)-2-((4′-((E)-(2-(2,4-dichlorophenyl)hydrazono)methyl)-[1,1′-biphenyl]-4-yl)methylene)hydrazine-1-carboximidamide hydrochloride]	3.6 µg/mL	7.8 µM	> 231 µg/mL	> 500 µM	> 500 µM	3.6 µg/mL	7.8 µM	–	> 500 µM	> 500 µM	–	> 500 µM	3.6 µg/mL	7.8 µM	> 231 µg/mL	> 500 µM	> 231 µg/mL	> 500 µM	1.8 µg/mL	3.9 µM	MIC [3, 27]: > 231 µg/mL; MIC ([5]; strain H, Gram-negative, converted from μM, read-out: MIC): > 231 µg/mL; MIC [6, 28]: > 231 µg/mL; MIC ([7]; strain E, Gram-negative, converted from μM, read-out: MIC): > 231 µg/mL; MIC [13, 29]: 16.8 µM; MIC [13]: 7.8 µg/mL; MIC ([14]; converted from μg/mL): 67.8 µM; MIC [14]: 31.3 µg/mL; MIC ([15]; converted from μg/mL): 16.8 µM; MIC [15]: 7.8 µg/mL; MIC ([16]; converted from μg/mL): 16.8 µM; MIC [16]: 7.8 µg/mL; MIC ([17]; converted from μg/mL): 67.8 µM; MIC [17]: 31.3 µg/mL; MIC ([18]; converted from μg/mL): 33.8 µM; MIC [18]: 15.6 µg/mL; MIC ([19]; converted from μg/mL): 33.8 µM; MIC [19]: 15.6 µg/mL; melting point: 356 to 358 °C; MIC [20]: 7.8 to 15.6 µg/mL
